For one data set, the system named is Hepatitis C virus. Kind of data set: Antiviral activity against HCV infected in human HuH7-luc/neo cells assessed as inhibition of DNA replication incubated for 3 days by luciferase reporter gene assay. It counts as functional, organism-based, Hepacivirus hominis. The settings on record: 72 h.
Data set [1] can be described thus: Cytotoxicity against human HuH7 cells assessed as reduction in cell viability incubated for 3 days by MTT assay. The data set is classed as cell-based, Huh-7. On the technique in general: Tetrazolium assays rely on reduction of a dye to a coloured formazan, in cell work by metabolically active cells.
Data set [2] is described as follows: Therapeutic index, ratio of CC50 for human HuH7 cells to EC50 for antiviral activity against HCV infected in human HuH7-luc/neo cells assessed as inhibition of DNA replication i.
Data set [3] has as its target T1, Protein deacetylase HDAC6 (Homo sapiens, UniProt Q9UBN7).
T1 sequence (Q9UBN7 whole entry): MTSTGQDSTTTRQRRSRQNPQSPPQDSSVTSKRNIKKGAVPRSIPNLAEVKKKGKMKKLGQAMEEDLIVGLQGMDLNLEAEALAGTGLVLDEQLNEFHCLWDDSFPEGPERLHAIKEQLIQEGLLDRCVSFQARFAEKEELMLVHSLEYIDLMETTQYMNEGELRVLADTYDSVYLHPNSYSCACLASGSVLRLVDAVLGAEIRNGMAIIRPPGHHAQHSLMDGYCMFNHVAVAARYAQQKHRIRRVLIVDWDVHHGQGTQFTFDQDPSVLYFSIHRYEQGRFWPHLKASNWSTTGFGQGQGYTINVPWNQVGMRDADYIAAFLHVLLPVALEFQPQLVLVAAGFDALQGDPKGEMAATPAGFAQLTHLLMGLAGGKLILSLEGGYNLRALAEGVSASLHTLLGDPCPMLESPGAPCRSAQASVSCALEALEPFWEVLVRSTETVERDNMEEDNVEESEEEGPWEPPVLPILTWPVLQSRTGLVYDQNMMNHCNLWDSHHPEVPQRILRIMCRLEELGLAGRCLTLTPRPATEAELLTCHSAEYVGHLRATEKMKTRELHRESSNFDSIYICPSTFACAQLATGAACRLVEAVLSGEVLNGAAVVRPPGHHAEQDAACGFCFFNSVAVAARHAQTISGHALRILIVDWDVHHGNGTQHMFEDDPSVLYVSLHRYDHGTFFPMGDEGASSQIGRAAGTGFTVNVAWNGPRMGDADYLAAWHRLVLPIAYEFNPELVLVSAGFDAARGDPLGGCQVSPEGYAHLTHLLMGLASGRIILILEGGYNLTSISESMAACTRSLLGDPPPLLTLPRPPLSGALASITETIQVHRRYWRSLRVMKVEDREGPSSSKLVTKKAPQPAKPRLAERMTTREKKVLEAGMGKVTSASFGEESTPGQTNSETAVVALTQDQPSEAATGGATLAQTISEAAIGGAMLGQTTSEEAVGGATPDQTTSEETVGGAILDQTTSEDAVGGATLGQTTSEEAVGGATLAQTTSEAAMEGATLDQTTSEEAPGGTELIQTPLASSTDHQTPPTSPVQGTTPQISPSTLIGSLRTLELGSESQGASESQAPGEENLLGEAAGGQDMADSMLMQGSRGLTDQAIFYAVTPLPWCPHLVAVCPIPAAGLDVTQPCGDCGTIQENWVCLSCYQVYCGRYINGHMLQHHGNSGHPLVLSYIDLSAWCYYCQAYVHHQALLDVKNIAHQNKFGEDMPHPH
As to the kind of experiment: Inhibition of human recombinant HDAC 6 by HDAC-Glo luminescent assay.

The target of data set [4] is Histone deacetylase 3 (Homo sapiens) (UniProt O15379). Kind of data set: Inhibition of HDAC3 in human Huh7-luc/neo cells assessed as increase in histone H3 K9 acetylation incubated for 24 hrs by Western blot analysis.
Where [5] appears, read: HuH7 cells (CC50) and HCV-infected HuH7-luc/neo cells (EC50).

Active and inactive are the calls of the source. No cut-off for these calls is given here. A value given as a limit tells only on which side of the number the result lay.

The EC50 is the concentration that produces a half-maximal response. For orientation: CC50 means the concentration giving 50% cytotoxicity. By IC50 is commonly meant the concentration that gives 50% inhibition.

Histone deacetylase 3 (Homo sapiens), sequence (O15379 whole entry): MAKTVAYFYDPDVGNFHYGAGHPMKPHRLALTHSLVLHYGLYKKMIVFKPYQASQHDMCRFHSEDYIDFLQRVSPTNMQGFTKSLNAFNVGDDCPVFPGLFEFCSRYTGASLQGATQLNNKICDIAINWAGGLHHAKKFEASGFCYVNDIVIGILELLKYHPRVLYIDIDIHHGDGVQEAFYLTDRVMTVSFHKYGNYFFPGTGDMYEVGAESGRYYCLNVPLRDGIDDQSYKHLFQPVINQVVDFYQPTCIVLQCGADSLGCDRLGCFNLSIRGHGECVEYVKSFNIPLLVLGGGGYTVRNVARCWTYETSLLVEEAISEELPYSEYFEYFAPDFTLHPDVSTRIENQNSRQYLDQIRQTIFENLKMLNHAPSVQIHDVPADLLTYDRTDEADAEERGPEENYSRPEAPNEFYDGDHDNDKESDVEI

Regarding `O=C(/C=C/c1cccc(S(=O)(=O)Nc2ccccc2)c1)NO` [BELINOSTAT], in the data set on Hepatitis C virus, the EC50 is 0.19 µM. For the same compound, the CC50 at 72 h in data set [1] is 0.65 µM.
In the case of `CCCNNC(=O)/C=C/c1cccc(S(=O)(=O)Nc2ccccc2)c1`, the EC50 with Hepatitis C virus amounted to 0.55 µM. Also, the selectivity ratio in data set [2] (setting [5]) worked out at 1.2. For the same compound, the CC50 at 72 h in data set [1] came to 0.68 µM.
`CN1CCc2c(c3ccccc3n2Cc2ccc(C(=O)NO)cc2)C1` [TUBASTATIN A]: the EC50 with Hepatitis C virus is 0.3 µM. In addition, the selectivity ratio in data set [2] was […]. In addition, in data set [1], the CC50 at 72 h was determined as […].
Turning to `CCCNNC(=O)/C=C/c1ccccc1`, in the data set with Hepatitis C virus, the concentration for a half-maximal effect (EC50) is 5.4 µM. The selectivity ratio in data set [2] (setting [5]) came to 3.3. For the same compound, the CC50 at 72 h in data set [1] turned out to be 18 µM.
Regarding `N[C@H](Cc1ccc(Cl)cc1Cl)C(=O)N1Cc2ccccc2C1`, the IC50 in data set [3] stood at 30 µM.
For `O=C(CCCCCCC(=O)Nc1ccccc1)NO` [VORINOSTAT], in data set [1], the 50% cytotoxic concentration (CC50) at 72 h is 0.64 µM.
Regarding `O=C(NO)C1c2ccccc2Oc2ccccc21`, in the data set on Hepatitis C virus, the EC50 stood at 0.75 µM. Besides, the selectivity ratio in data set [2] (setting [5]) turned out to be 400. Also, in data set [1], the CC50 at 72 h was 300 µM.
On the same counts, the results for `CCCNNC(=O)c1ccc(Cn2c3c(c4ccccc42)CN(C)CC3)cc1` are 0.24 µM, 22 and 5.3 µM.
With `CCNNC(=O)c1ccccc1`, in data set [1], the CC50 at 72 h was > 1000 µM.
Turning to `CCCNNC(=O)CCc1ccccc1`, in the data set with Hepatitis C virus, the EC50 is 3.8 µM. Also, the selectivity ratio in data set [2] (setting [5]) amounted to 25. Besides, in data set [1], the CC50 at 72 h worked out at 96 µM.
Regarding `CCCNNC(=O)c1ccccc1`, the EC50 in the data set on Hepatitis C virus is 5.5 µM. For the same compound, in data set [2] (setting [5]), the selectivity ratio was 22. In addition, the CC50 at 72 h in data set [1] stood at 120 µM.
The like results for `CCCNNC(=O)CCCCCCC(=O)Nc1ccccc1` were, in that order, 1.3 µM, 5.4 and 7 µM.
Regarding `CCCNNC(=O)C1c2ccccc2Oc2ccccc21`, in data set [1], the CC50 at 72 h is > 300 µM.
As to `CCCNNC(=O)c1ccc(Cn2c(C)nc3ccccc32)cc1`, the EC50 in the data set on Hepatitis C virus is 0.025 µM. Besides, the selectivity ratio in data set [2] (setting [5]) amounted to 400. Besides, the CC50 at 72 h in data set [1] is 9.9 µM.
As for `CNNC(=O)c1ccccc1`, in data set [1], the CC50 at 72 h is > 1000 µM.
For `CCCNNC(=O)c1ccc(-c2ccccc2)cc1`, the EC50 with Hepatitis C virus came out at 1.5 µM. In addition, the selectivity ratio in data set [2] (setting [5]) amounted to 3.9. Also, the CC50 at 72 h in data set [1] is 5.9 µM.
On the same counts, the results for `O=C(CCc1ccccc1)NO` are 5.2 µM, 21 and 110 µM.
Regarding `O=C(NCC1(c2nc(-c3ccccc3)cs2)CCOCC1)c1cccc(-c2noc(C(F)(F)F)n2)c1`, in the data set on Hepatitis C virus, the EC50 was found to be 4.5 µM. Besides, the selectivity ratio in data set [2] was 18. The CC50 at 72 h in data set [1] was 83 µM. The inhibition result in data set [4] was “Active”.
Take `O=C(/C=C/c1ccccc1)NO`: the EC50 in the data set on Hepatitis C virus was found to be 2 µM. Also, in data set [2], the selectivity ratio is 10. In data set [1], the CC50 at 72 h came to 20 µM.
Regarding `Cc1nc2ccccc2n1Cc1ccc(C(=O)NO)cc1`, the EC50 in the data set on Hepatitis C virus stood at 0.27 µM. In addition, the selectivity ratio in data set [2] (setting [5]) was 29. In data set [1], the CC50 at 72 h stood at 7.9 µM.
The like results for `O=C(NO)c1ccc(-c2ccccc2)cc1` were, in that order, 0.4 µM, 75 and 30 µM.

Values taken from ChEMBL document CHEMBL4433239, “Synthesis of N'-propylhydrazide analogs of hydroxamic inhibitors of histone deacetylases (HDACs) and evaluation of their impact on activities of HDACs and replication of hepatitis C virus (HCV)” (Bioorg Med Chem Lett, 2019).
